Experimental data as given in patent US8034574B2, “Screening method for prokinetic agent” (Astellas Pharma Inc., priority 2006, dated 2011).
Entries after “also recorded” stand apart in the source; their conditions may differ. Where a name gives a salt, the structure may show the parent alone.

How the values were obtained:
RIN14B cells [1] = assay: Channel activity in RIN14B cells using calcium-sensitive fluorescent reagent (FLIPR); assay type: cell-based, rat; conditions: for elevation of fluorescence intensity (calcium inflow) in RIN14B cells: Fluo3-AM
Procedure: RIN14B cells (5×10^4 cells), wherein the expression of TRPA1 was confirmed in Example 10, were incubated in the presence of a calcium-sensitive fluorescent reagent (Fluo3-AM; DOJINDO) at 37° C. for 1 hour to thereby incorporate the calcium-sensitive fluorescent reagent in the cells, after which the cells were washed with physiological saline to remove the calcium-sensitive fluorescent reagent that had not been incorporated in the cells. To the cells obtained, physiological saline supplemented with allyl isothiocyanate, cinnamic aldehyde, or acrolein was added; the fluorescence emitted by the cells was measured over time. The above-described measurements were performed using an automated fluorescence detection apparatus (FLIPR; Molecular Device). […] Ruthenium Red was added concurrently and a measurement was performed to determine whether or not calcium inflow in the cells was be inhibited.

RIN14B cells [2] = assay: Serotonin secretion from RIN14B cells (immunoassay); assay type: cell-based, rat; conditions: for serotonin secretion from RIN14B cells: 20 minutes culture
Procedure: After RIN14B cells in culture in a Petri dish were detached using a PBS containing 1 mM EDTA, they were sown to a 96-well plate and cultured for 2 days. The medium used was RPMI1640 (Invitrogen Japan K.K.) supplemented with 10% fetal bovine serum (ICN), 100 U/ml penicillin, and 100 μg/ml streptomycin. After the cells were once washed with Hanks' Balanced Salt Solutions (HBSS, Invitrogen) supplemented with 0.1% BSA and 10 μM fluoxetine (TOCRIS), each TRPA1 activator, previously diluted/prepared with the above-described HBSS, was added, and the RIN14B cells were cultured at 37° C. in the presence of 5% CO2 for 20 minutes. After the cultivation, the cell supernatant was recovered, and stored under freezing. The serotonin content in the supernatant was measured using a commercially available serotonin immunoassay kit (Beckman).

guinea pig ileum [3] = assay: Isolated guinea pig gut constriction (Magnus, ileum); conditions: for EC50: Cavia porcellus, read-out: EC50(μM) †; for Action: Magnus (guinea pig ileum); for suppression of contraction upon stimulation with acrolein by serotonin receptor antagonists: acrolein 300 μM, pizotifen maleate 10 μM, ramosetron hydrochloride 0.3 μM, vs vehicle
Procedure: Guinea pigs (Hartley strain, male, weighing 300-400 g), under ether anesthesia, were exsanguinated to death by cutting the carotid artery. The ileum was extirpated, about 15-cm portions at both ends were removed, a section 1.5 cm long was cut out from the remaining portion, and incisions were made longitudinally parallelly in the gut to prepare a tabular specimen. This specimen was sandwiched with serrefine at both ends, and suspended with a thread in a Magnus chamber containing 10 ml of a 37° C. Krebs solution (118 mM NaCl, 4.7 mM KCl, 2.5 mM CaCl2, 1.2 mM MgSO4, 1.2 mM KH2PO4, 11 mM D-glucose, 20 mM NaHCO3) aerated with 95% O2-5% CO2 mixed gas. A 1-g load was applied to the specimen, buffers were exchanged at 15-minute intervals, and the specimen was allowed to stand for about 60 minutes to stabilize its tension. Changes in the tension in response to agonist stimulation were measured isometrically, and recorded on a recorder. Acetylcholine, 10^−5 M, was administered to induce contraction of the ileum specimen; after the contraction maximized, the bath was washed three times to purge out the acetylcholine. This operation was repeated at 10-minute intervals, and after the induced contraction stabilized two consecutive times, each test substance was administered. By comparing the contractile forces produced by acetylcholine and the test substance, the effect of the test substance was evaluated. One specimen was investigated only at one concentration of the test substance. […] From the results above, it was shown that the TRPA1 activator induced gut contraction.
The serotonin receptor antagonists used were pizotifen maleate (10 μM), a 5-HT1,2 receptor antagonist, ketanserin tartrate (0.1 μM), a 5-HT2 receptor antagonist, ramosetron hydrochloride (0.3 μM), a 5-HT3 receptor antagonist, and GR113808 (0.3 μM), a 5-HT4 receptor antagonist.
The inhibitory actions of various serotonin receptor antagonists on contraction upon stimulation with acrolein (300 μM) were investigated in the same manner. […] From the results above, it was shown that serotonin was released upon stimulation with acrolein to induce contraction via serotonin receptors such as 5-HT1 receptor and 5-HT3 receptor.

[4] = molecular target: T1, human TRPA1 (polypeptide of SEQ ID NO:2) (Homo sapiens, UniProt O75762, K186N/R3C/R58T); assay: TRPA1 inhibitor screening by FLIPR, calcium inflow after addition of cinnamic aldehyde; assay type: cell-based; conditions: read-out: inhibitory activity on the polypeptide of SEQ ID NO:2 in terms of IC50
T1 construct: expressed in transfected cells; host or cells: CHO-K1 cells, transient transfection of the pcDNA3.1(+) human TRPA1 vector
Procedure: To measure the changes in intracellular calcium concentration by FLIPR, the following pre-treatment was performed. First, an assay buffer for adding the fluorescent dye Fluo3-AM (DOJIN) to the cells, or for washing the cells just before performing the FLIPR assay, was prepared. To a solution prepared by adding 20 ml of 1M HEPES (pH 7.4) (Invitrogen) to 1000 ml of HBSS (Invitrogen) (hereinafter, HBSS/HEPES solution), 10 ml of a solution prepared by dissolving 710 mg of probenecid (Sigma) in 5 ml of 1N NaOH and then adding 5 ml of the HBSS/HEPES solution, was added and mixed, and this solution was used as the assay buffer. […] After this pretreatment was performed, changes in intracellular calcium concentration after addition of the various test samples were measured with the FLIPR.
Compounds that inhibit a polypeptide consisting of the amino acid sequence shown by SEQ ID NO:2 (inhibitor) were screened for. Inhibitory activity was measured by performing detection of calcium inflow in the cells using a calcium-sensitive fluorescent reagent; specifically, the method described in Example 3 was used with a modification. […]

[5] = molecular target: T1, human TRPA1 (polypeptide of SEQ ID NO:2); assay: Intracellular calcium by FLIPR in CHO-K1 cells expressing human TRPA1 (activator screening); assay type: cell-based
Procedure: To detect the TRPA1 channel activity of a polypeptide consisting of the amino acid sequence shown by SEQ ID NO:2, the expression vector obtained in Example 1 above was transfected to animal cells, whereby the aforementioned protein was expressed.
Various test samples were added to CHO-K1 cells forced to is transiently express TRPA1 by the transfection operation of Example 2 above, and the resulting changes in intracellular calcium concentration were measured using FLIPR (Molecular Device).
To measure the changes in intracellular calcium concentration by FLIPR, the following pre-treatment was performed. First, an assay buffer for adding the fluorescent dye Fluo3-AM (DOJIN) to the cells, or for washing the cells just before performing the FLIPR assay, was prepared. To a solution prepared by adding 20 ml of 1M HEPES (pH 7.4) (Invitrogen) to 1000 ml of HBSS (Invitrogen) (hereinafter, HBSS/HEPES solution), 10 ml of a solution prepared by dissolving 710 mg of probenecid (Sigma) in 5 ml of 1N NaOH and then adding 5 ml of the HBSS/HEPES solution, was added and mixed, and this solution was used as the assay buffer. Next, 50 μg of Fluo3-AM was dissolved in 22 μl of DMSO (DOJIN), and an equal volume of 20% pluronic acid (Molecular Probes) was added and mixed, after which this mixture was added to 10.6 ml of the assay buffer supplemented with 105 μl of fetal bovine serum, whereby a fluorescent dye solution was prepared. […] After this pretreatment was performed, changes in intracellular calcium concentration after addition of the various test samples were measured with the FLIPR.
Compounds that activate a polypeptide consisting of the amino acid sequence shown by SEQ ID NO:2 (activators) were screened for. As an index of activation, calcium inflow in the cells was detected using a calcium-sensitive fluorescent reagent; specifically, the method described in Example 3 was used.

[6] = system: CHO-K1 cells not expressing the polypeptide shown by SEQ ID NO:2; assay: Intracellular calcium by FLIPR in negative control CHO-K1 cells; assay type: cell-based; conditions: CHO-K1 cells not expressing TRPA1
rat EC cells = assay: Serotonin secretion from rat small intestine EC cells; assay type: cell-based; conditions: 45 minutes culture
Procedure: A Wistar rat (male, 8-week-old) was decapitated and exsanguinated, after which it was dissected and laparotomized with scissors, and the small intestine was extirpated. The inside of the lumen of the extirpated small intestine was washed with physiological saline, and about 20 mL of Buffer A (70 mM NaCl, 5 mM KCl, 20 mM NaHCO3, 0.5 mM NaH2PO4, 50 mM HEPES (pH 7.2), 11 mM glucose, 3 mM EDTA, 0.5% BSA, 0.05 mM dithiothreitol, 1 mg/mL N-acetyl-L-cysteine) was injected, after which both ends were closed, and the small intestine was allowed to stand in 37° C. incubated HBSS for 10 minutes. Thereafter, the Buffer A in the lumen of the small intestine was discarded, about 20 mL of Buffer A was injected again, and the small intestine was allowed to stand in 37° C. incubated HBSS for 10 minutes. Again, the Buffer A in the lumen of the small intestine was discarded, fresh Buffer A was injected, and the small intestine was allowed to stand in 37° C. incubated HBSS for 20 minutes, after which the lumen content was recovered. […]
Serotonin secretion activity in EC cells prepared by the method described in Example 9-(3) was measured by a method modified from the method of Example 14 above. […]
The serotonin content in the supernatant was measured using a commercially available serotonin immunoassay kit (Beckman). […]

guinea pig ileum [7] = assay: Isolated guinea pig gut constriction (Magnus, ileum); conditions: allyl isothiocyanate 300 μM; pizotifen maleate 10 μM, ramosetron hydrochloride 0.3 μM; vs vehicle

T1 sequence (O75762 whole entry R3C/R58T/K186N): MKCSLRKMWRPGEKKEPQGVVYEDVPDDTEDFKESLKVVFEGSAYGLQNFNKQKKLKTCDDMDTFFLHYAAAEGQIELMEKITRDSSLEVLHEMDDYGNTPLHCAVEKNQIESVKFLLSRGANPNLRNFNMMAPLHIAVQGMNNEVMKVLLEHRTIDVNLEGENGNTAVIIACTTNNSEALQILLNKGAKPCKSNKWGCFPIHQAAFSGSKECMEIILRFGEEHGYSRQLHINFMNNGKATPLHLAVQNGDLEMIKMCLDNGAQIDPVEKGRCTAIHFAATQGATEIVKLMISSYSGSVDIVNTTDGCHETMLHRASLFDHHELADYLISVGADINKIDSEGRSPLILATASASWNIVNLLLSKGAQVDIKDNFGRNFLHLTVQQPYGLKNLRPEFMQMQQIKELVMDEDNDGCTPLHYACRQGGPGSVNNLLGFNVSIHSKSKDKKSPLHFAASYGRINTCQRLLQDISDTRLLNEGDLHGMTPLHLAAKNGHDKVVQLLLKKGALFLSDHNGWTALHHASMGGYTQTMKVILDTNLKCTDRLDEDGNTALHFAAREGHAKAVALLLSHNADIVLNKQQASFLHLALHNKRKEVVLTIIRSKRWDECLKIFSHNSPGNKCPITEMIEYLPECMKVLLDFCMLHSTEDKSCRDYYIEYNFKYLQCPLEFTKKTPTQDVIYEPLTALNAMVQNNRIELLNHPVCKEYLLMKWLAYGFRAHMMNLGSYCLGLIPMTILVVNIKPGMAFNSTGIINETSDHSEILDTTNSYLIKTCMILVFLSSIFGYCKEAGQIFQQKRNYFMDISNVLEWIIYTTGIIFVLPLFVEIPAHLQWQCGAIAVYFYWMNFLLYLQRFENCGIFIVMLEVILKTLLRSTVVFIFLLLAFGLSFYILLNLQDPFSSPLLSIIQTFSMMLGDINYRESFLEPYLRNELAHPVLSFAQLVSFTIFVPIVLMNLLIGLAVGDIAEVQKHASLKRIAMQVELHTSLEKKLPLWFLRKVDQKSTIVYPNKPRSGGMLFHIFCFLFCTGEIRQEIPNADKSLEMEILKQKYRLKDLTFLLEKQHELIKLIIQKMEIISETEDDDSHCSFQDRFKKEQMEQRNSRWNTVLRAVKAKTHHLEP

Compound	elevation of fluorescence intensity (calcium inflow) in RIN14B cells (RIN14B cells [1]; RIN14B cells)	serotonin secretion from RIN14B cells (RIN14B cells [2])	EC50 (guinea pig ileum [3]) [µM]	Action (guinea pig ileum [3])	elevation of fluorescence intensity in negative control cells [6]	suppression of contraction upon stimulation with acrolein by serotonin receptor antagonists (guinea pig ileum [3])	suppression of contraction upon stimulation with allyl isothiocyanate by serotonin receptor antagonists (guinea pig ileum [7])	further results
N.N.N.N.N.N.N.N.N.N.N.N.N.N.[Cl-].[Cl-].[Cl-].[Cl-].[Cl-].[Cl-].[O-2].[O-2].[Ru+3].[Ru+3].[Ru+4] [Ruthenium Red]								inhibition of activation by allyl isothiocyanate (RIN14B cells [1]; 30 μM Ruthenium Red, RIN14B cells): 90.9%; inhibition of activator-induced elevation of fluorescence intensity (RIN14B cells [1]; added concurrently with allyl isothiocyanate, cinnamic aldehyde or acrolein): the elevation of fluorescence intensity was inhibited; inhibition of acrolein-induced serotonin secretion (RIN14B cells [2]; 30 μM Ruthenium Red, acrolein 30 μM): 73.0%; suppression of cinnamic aldehyde-induced serotonin secretion (RIN14B cells [2]; Ruthenium Red 30 μM, cinnamic aldehyde 30 μM): completely suppressed; suppression of contraction upon stimulation with allyl isothiocyanate by TRPA1 inhibitor (guinea pig ileum [3]; Ruthenium Red 30 μM for 15 minutes, allyl isothiocyanate 300 μM, vs vehicle-applied specimen): about 84%; IC50 [4]: 2.2 µM
C=CC=O [acrolein]	an elevation of fluorescence intensity was detected	serotonin secretion was promoted; also recorded: concentration-dependently promoted the release of serotonin	70.3	Contraction	none of these compounds produced an elevation of fluorescence intensity			EC50 [5]: 7 µM; change in intracellular calcium concentration ([5]; CHO-K1 cells expressing human TRPA1, FLIPR, Fluo3-AM): responded specifically (elevation of intracellular calcium concentration); concentration at which constrictive action was observed (guinea pig ileum [3]; tested at 10, 30, 100, 300 μM): ≥ 10 µM
O=C/C=C/c1ccccc1 [cinnamic aldehyde]	an elevation of fluorescence intensity was detected	serotonin secretion was promoted; also recorded: concentration-dependently promoted the release of serotonin	88.3	Contraction	none of these compounds produced an elevation of fluorescence intensity			serotonin secretion from rat EC cells (rat EC cells): significant serotonin secretion promoting activity was observed; also recorded: promoted the release of serotonin from the EC cells
Cn1cc(C(=O)[C@@H]2CCc3nc[nH]c3C2)c2ccccc21 [ramosetron hydrochloride]						about 84%	about 74%	
pizotifen maleate						about 74%	about 44%	
